# Laboratory results reported in US10017520B2, “Myc modulators and uses thereof” (Massachusetts Institute of Technology, priority 2014, dated 2018).
# Tested on: c-Myc
# Experiment: c-Myc reporter gene assay (Qiagen) in HEK293T cells
# Format: cell-based
# Settings: treatment 16 hours, Firefly/Renilla ratio
# Protocol: Compound 1's activity against Myc was measured as a Firefly/Renilla ratio, using the Myc reporter assay (Qiagen) in HEK293T cells after treatment with compound 1 for 16 hours. Results are expressed as a mean+/−SD (n=3). SD: standard deviation.
# Select compounds described herein that were SMM assay positives were evaluated in several versions of a c-Myc reporter gene assay, including a commercial assay from Qiagen. The compounds' activities against c-Myc were measured as a Firefly/Renilla ratio, using the Myc reporter assay (Qiagen) in HEK293T cells after treatment with the compounds for 16 hours.
SMILES,"IC50 (Homo sapiens, HEK-293T, 16 h) [µM]",other results
"CC(C)N1C(=O)S/C(=C\c2ccc(Sc3nc4ccccc4n3C)o2)C1=O [Compound 18, (Z)-3-isopropyl-5-((5-((1-methyl-1H-benzo[d]imidazol-2-yl)thio)furan-2-yl)methylene)thiazolidine-2,4-dione]",1.67,
"CC(C)N1C(=O)S/C(=C\c2cccc(Oc3nc4ccccc4[nH]3)c2)C1=O [Compound 65, (Z)-5-(3-((1H-benzo[d]imidazol-2-yl)oxy)benzylidene)-3-isopropylthiazolidine-2,4-dione]",0.99,
"CC(C)NC(=O)c1ccc(Sc2nc3ccccc3[nH]2)o1 [Compound 43, 5-((1H-benzo[d]imidazol-2-yl)thio)-N-isopropylfuran-2-carboxamide]",7.9,
CC(C)NCc1ccc(Sc2nc3ccccc3[nH]2)o1 [Compound 46],57.5,
"CN(C)Cc1ccc(Sc2nc3ccccc3[nH]2)o1 [Compound 49, 1-(5-((1H-benzo[d]imidazol-2-yl)thio)furan-2-yl)-N,N-dimethylmethanamine]",59.4,
"CC(C)N1C(=O)S/C(=C\c2ccc(Sc3nc4ccccc4[nH]3)cc2)C1=O [Compound 64, (Z)-5-(4-((1H-benzo[d]imidazol-2-yl)thio)benzylidene)-3-isopropylthiazolidine-2,4-dione]",1.82,
"O=C(c1ccc(Sc2nc3ccccc3[nH]2)o1)N1CCOCC1 [Compound 44, (5-((1H-benzo[d]imidazol-2-yl)thio)furan-2-yl)(morpholino)methanone]",,c-Myc reporter assay IC50: non active
"O=C(O)c1ccc(Sc2nc3ccccc3[nH]2)o1 [Compound 41, 5-((1H-benzo[d]imidazol-2-yl)thio)furan-2-carboxylic acid]",,c-Myc reporter assay IC50: non active
"c1ccc2[nH]c(Sc3ccc(CN4CCOCC4)o3)nc2c1 [Compound 47, 4-((5-((1H-benzo[d]imidazol-2-yl)thio)furan-2-yl)methyl)morpholine]",32.9,
"COC(=O)CNCc1ccc(Sc2nc3ccccc3[nH]2)o1 [Compound 50, Methyl 2-(((5-((1H-benzo[d]imidazol-2-yl)thio)furan-2-yl)methyl)amino)acetate]",75.9,
"CC(=O)Nc1ccc2nc(Sc3ccc(/C=C4\SC(=O)N(C(C)C)C4=O)o3)[nH]c2c1 [Compound 62, (Z)—N-(2-((5-((3-isopropyl-2,4-dioxothiazolidin-5-ylidene)methyl)furan-2-yl)thio)-1H-benzo[d]imidazol-6-yl)acetamide]",0.93,
"CC(C)N1C(=O)S/C(=C\c2ccc(Sc3nc4ccc(NC(=O)c5ccccc5)cc4[nH]3)o2)C1=O [Compound 61, (Z)—N-(2-((5-((3-isopropyl-2,4-dioxothiazolidin-5-ylidene)methyl)furan-2-yl)thio)-1H-benzo[d]imidazol-6-yl)benzamide]",0.4,
"CC(C)N1C(=O)S/C(=C\c2ccc(Sc3ncc[nH]3)o2)C1=O [Compound 16, (Z)-5-((5-((1H-imidazol-2-yl)thio)furan-2-yl)methylene)-3-isopropylthiazolidine-2,4-dione]",20.8,
Cc1ccc(Sc2ccc(/C=C3\SC(=O)N(C(C)C)C3=O)o2)cc1 [Compound 39],> 100,
"CC(C)N1C(=O)S/C(=C\c2ccc(Sc3nc4ccccc4[nH]3)s2)C1=O [Compound 11, (Z)-5-((5-((1H-benzo[d]imidazol-2-yl)thio)thiophen-2-yl)methylene)-3-isopropylthiazolidine-2,4-dione]",,"IC50 (Homo sapiens, HEK-293T): 1.62 µM"
"CCN1CCN(Cc2ccc(Sc3nc4ccccc4[nH]3)o2)CC1 [Compound 48, 2-((5-((4-ethylpiperazin-1-yl)methyl)furan-2-yl)thio)-1H-benzo[d]imidazole]",10.2,
"NCCCN1C(=O)S/C(=C\c2ccc(Sc3nc4ccccc4[nH]3)o2)C1=O [Compound 19, (Z)-5-((5-((1H-benzo[d]imidazol-2-yl)thio)furan-2-yl)methylene)-3-(3-aminopropyl)thiazolidine-2,4-dione 2,2,2-trifluoroacetate]",7.3,IC50: 6.52 µM
"CC(C)N1C(=O)S/C(=C\c2cc3ccc(Sc4nc5ccccc5[nH]4)cc3o2)C1=O [Compound 68, (Z)-5-((6-((1H-benzo[d]imidazol-2-yl)thio)benzofuran-2-yl)methylene)-3-isopropylthiazolidine-2,4-dione]",0.54,
"COC(=O)c1ccc2nc(Sc3ccc(/C=C4\SC(=O)N(C(C)C)C4=O)o3)[nH]c2c1 [Compound 63, (Z)-methyl 2-((5-((3-isopropyl-2,4-dioxothiazolidin-5-ylidene)methyl)furan-2-yl)thio)-1H-benzo[d]imidazole-6-carboxylate]",1.49,
O=C(CN1C(=O)S/C(=C\c2ccc(Sc3nc4ccccc4[nH]3)o2)C1=O)N1CCN(c2ccccc2)CC1 [Compound 34],7.01,
CC(/C=C1\SC(=O)N(C(C)C)C1=O)=C\c1ccccc1 [Compound 37],> 100,

SMILES,"IC50 (Homo sapiens, HEK-293T, 16 h) [µM]",other results
"CC(C)N1C(=O)S/C(=C\c2ccc(Sc3ccccn3)o2)C1=O [Compound 17, (Z)-3-isopropyl-5-((5-(pyridin-2-ylthio)furan-2-yl)methylene)thiazolidine-2,4-dione]",7.67,
"O=C1NC(=O)C(=Cc2ccc(Sc3nc4ccccc4[nH]3)o2)C(=O)N1 [Compound 54, 5-((5-((1H-benzo[d]imidazol-2-yl)thio)furan-2-yl)methylene)pyrimidine-2,4,6(1H,3H,5H)-trione]",,c-Myc reporter assay IC50: non active
"O=C(NCCCN1C(=O)S/C(=C\c2ccc(Sc3nc4ccccc4[nH]3)o2)C1=O)Nc1ccccc1 [Compound 20, (Z)-1-(3-(5-((5-((1H-benzo[d]imidazol-2-yl)thio)furan-2-yl)methylene)-2,4-dioxothiazolidin-3-yl)propyl)-3-phenylurea]",1.22,
"CC(C)N1C(=O)S/C(=C\c2ccc(Sc3nc4ccc([N+](=O)[O-])cc4[nH]3)o2)C1=O [Compound 57, (Z)-3-isopropyl-5-((5-((6-nitro-1H-benzo[d]imidazol-2-yl)thio)furan-2-yl)methylene)thiazolidine-2,4-dione]",0.36,
"c1ccc(NCc2ccc(Sc3nc4ccccc4[nH]3)o2)cc1 [Compound 45, N-((5-((1H-benzo[d]imidazol-2-yl)thio)furan-2-yl)methyl)aniline]",4.66,
CCC(C)N1C(=O)S/C(=C\c2ccc(Sc3nc4ccccc4[nH]3)o2)C1=O (stereo not drawn) [Compound 31],2.22,
"CN1C(=O)C(=Cc2ccc(Sc3nc4ccccc4[nH]3)o2)C(=O)N(C)C1=O [Compound 53, 5-((5-((1H-benzo[d]imidazol-2-yl)thio)furan-2-yl)methylene)-1,3-dimethylpyrimidine-2,4,6(1H,3H,5H)-trione]",,"IC50 (Homo sapiens, HEK-293T): 26.8 µM"
"CC(=O)c1ccc2nc(Sc3ccc(/C=C4\SC(=O)N(C(C)C)C4=O)o3)[nH]c2c1 [Compound 58, (Z)-5-((5-((6-acetyl-H-benzo[d]imidazol-2-yl)thio)furan-2-yl)methylene)-3-isopropylthiazolidine-2,4-dione]",0.26,
"CC(C)N1C(=O)S/C(=C\c2ccc(Sc3nc4ccc(OC(F)(F)F)cc4[nH]3)o2)C1=O [Compound 56, (Z)-3-isopropyl-5-((5-((6-(trifluoromethoxy)-1H-benzo[d]imidazol-2-yl)thio)furan-2-yl)methylene)thiazolidine-2,4-dione]",0.44,
"CC(C)N1C(=O)S/C(=C\c2ccc(Sc3nc4ccc(N)cc4[nH]3)o2)C1=O [Compound 60, (Z)-5-((5-((6-amino-1H-benzo[d]imidazol-2-yl)thio)furan-2-yl)methylene)-3-isopropylthiazolidine-2,4-dione]",4.56,
"O=C(Nc1ccccc1)c1ccc(Sc2nc3ccccc3[nH]2)o1 [Compound 42, 5-((1H-benzo[d]imidazol-2-yl)thio)-N-phenylfuran-2-carboxamide]",3.32,
COC(=O)C(C)N1C(=O)S/C(=C\c2ccc(Sc3nc4ccccc4[nH]3)o2)C1=O (stereo not drawn) [Compound 32],6.24,
"COC(=O)CN1C(=O)S/C(=C\c2ccc(Sc3nc4ccccc4[nH]3)o2)C1=O [Compound 15, (Z)-methyl 2-(5-((5-((1H-benzo[d]imidazol-2-yl)thio)furan-2-yl)methylene)-2,4-dioxothiazolidin-3-yl)acetate]",3.26,
"COC(=O)c1ccc(Sc2nc3ccccc3[nH]2)o1 [Compound 51, Methyl 5-((1H-benzo[d]imidazol-2-yl)thio)furan-2-carboxylate]",,c-Myc reporter assay IC50: non active
CCNC(=O)NCCCN1C(=O)S/C(=C\c2ccc(Sc3nc4ccccc4[nH]3)o2)C1=O [Compound 21],6.77,
"O=C(O)CN1C(=O)S/C(=C\c2ccc(Sc3nc4ccccc4[nH]3)o2)C1=O [Compound 13, (Z)-2-(5-((5-((1H-benzo[d]imidazol-2-yl)thio)furan-2-yl)methylene)-2,4-dioxothiazolidin-3-yl)acetic acid]",,c-Myc reporter assay IC50: inactive
"O=C1CSC(=O)N1Cc1ccc(Sc2nc3ccccc3[nH]2)o1 [Compound 67, 3-((5-((1H-benzo[d]imidazol-2-yl)thio)furan-2-yl)methyl)thiazolidine-2,4-dione]",30,
O=C1S/C(=C\c2ccc(Sc3nc4ccccc4[nH]3)o2)C(=O)N1c1ccccc1 [Compound 35],11.9,
"CC(C)(C)OC(=O)CN1C(=O)S/C(=C\c2ccc(Sc3nc4ccccc4[nH]3)o2)C1=O [Compound 14, (Z)-tert-butyl 2-(5-((5-((1H-benzo[d]imidazol-2-yl)thio)furan-2-yl)methylene)-2,4-dioxothiazolidin-3-yl)acetate]",1.96,
COC(=O)C(C)N1C(=O)S/C(=C\C=C\c2ccco2)C1=O (stereo not drawn) [Compound 38],> 100,
